Reference: PubChem BioAssay AID330 (DTP/NCI, 2004)
Toxic doses and inconclusive results are not listed. Rule for the calls: active = survival T/C of 150% or more; inactive = T/C below 125% in these data.

System: P388 leukemia ip, CD2F1 mice, survival T/C
Experiment: NCI In Vivo Anticancer Drug Screen. Data for tumor model P388 Leukemia (intraperitoneal) in CD2F1 (CDF1) mice
Settings: endpoint: median survival time, higher = longer survival
In short: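 Mice carrying the transplanted tumor received test compound or vehicle. Survival was recorded in each group, and the value is the treated-group measurement divided by that of the vehicle-treated control group.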

[1] = dose: 100.0 mg/kg/injection, schedule: Q01DX001 (ip), vehicle: Klucel (hydroxypropylcellulose) (HPC)
[2] = dose: 200.0 mg/kg/injection, schedule: Q01DX001 (ip), vehicle: Klucel (hydroxypropylcellulose) (HPC)
[3] = dose: 50.0 mg/kg/injection, schedule: Q01DX005 (ip), vehicle: saline with Tween-80
[4] = dose: 100.0 mg/kg/injection, schedule: Q01DX005 (ip), vehicle: saline with Tween-80
[5] = dose: 200.0 mg/kg/injection, schedule: Q01DX005 (ip), vehicle: saline with Tween-80
[6] = dose: 25.0 mg/kg/injection, schedule: Q01DX009 (ip), vehicle: saline with Tween-80
[7] = dose: 50.0 mg/kg/injection, schedule: Q01DX009 (ip), vehicle: saline with Tween-80
[8] = dose: 100.0 mg/kg/injection, schedule: Q01DX009 (ip), vehicle: saline with Tween-80
[9] = dose: 200.0 mg/kg/injection, schedule: Q01DX009 (ip), vehicle: saline with Tween-80
[10] = dose: 50.0 mg/kg/injection, schedule: Q01DX009 (ip), vehicle: saline
[11] = dose: 100.0 mg/kg/injection, schedule: Q01DX009 (ip), vehicle: saline
[12] = dose: 60.0 mg/kg/injection, schedule: Q01DX005 (ip), vehicle: saline with Tween-80
[13] = dose: 120.0 mg/kg/injection, schedule: Q01DX005 (ip), vehicle: saline with Tween-80
[14] = dose: 240.0 mg/kg/injection, schedule: Q01DX005 (ip), vehicle: saline with Tween-80
[15] = dose: 12.5 mg/kg/injection, schedule: Q01DX009 (ip), vehicle: saline
[16] = dose: 25.0 mg/kg/injection, schedule: Q01DX009 (ip), vehicle: saline
[17] = dose: 100.0 mg/kg/injection, schedule: Q04DX003 (ip), vehicle: Klucel (hydroxypropylcellulose) (HPC)
[18] = dose: 50.0 mg/kg/injection, schedule: Q01DX005 (ip), vehicle: Klucel (hydroxypropylcellulose) (HPC)
[19] = dose: 100.0 mg/kg/injection, schedule: Q01DX005 (ip), vehicle: Klucel (hydroxypropylcellulose) (HPC)
[20] = dose: 200.0 mg/kg/injection, schedule: Q01DX005 (ip), vehicle: Klucel (hydroxypropylcellulose) (HPC)

Measured: T/C

Cn1c(O)c(C2=NC(C(=O)O)CS2)c(=O)n(C)c1=O (centres undefined)
inactive: dose: 60.0 mg/kg/injection, schedule: Q01DX005 (ip), vehicle: saline 100 % of control | dose: 120.0 mg/kg/injection, schedule: Q01DX005 (ip), vehicle: saline 101 % of control | dose: 240.0 mg/kg/injection, schedule: Q01DX005 (ip), vehicle: saline 101 % of control

COC(=O)/C1=C/N(C=O)CCCC2OC12C(=O)OC (centres undefined)
inactive: [1] 100 % of control | [2] 100 % of control

CC(C)(C)OC(=O)NC(N)=NCCCC(NC(=O)OC(C)(C)C)C(=O)O (centres undefined)
inactive: [3] 100 % of control | [4] 103 % of control | [5] 102 % of control

O=C([Se][Se]C(=O)c1ccc(Cl)cc1)c1ccc(Cl)cc1
inactive: dose: 12.5 mg/kg/injection, schedule: Q01DX009 (ip), vehicle: saline with Tween-80 99 % of control | [6] 100 % of control | [7] 100 % of control | [8] 98 % of control

CN(C)c1nc(O)cc(=O)[nH]1
inactive: [7] 106 % of control | [8] 100 % of control | [9] 89 % of control

CC(C)(C)c1cc(C(C)(C)C)c2oc(C(=O)O)cc(=O)c2c1
inactive: [10] 95 % of control | [11] 97 % of control

CC1=CC(c2c(O)cc(O)c(C(=O)CCc3ccccc3)c2O)C(C(C)C)CC1 (centres undefined)
inactive: dose: 3.75 mg/kg/injection, schedule: Q01DX005 (ip), vehicle: Klucel + Tween-80 94 % of control | dose: 7.5 mg/kg/injection, schedule: Q01DX005 (ip), vehicle: Klucel + Tween-80 103 % of control | dose: 15.0 mg/kg/injection, schedule: Q01DX005 (ip), vehicle: Klucel + Tween-80 97 % of control | dose: 30.0 mg/kg/injection, schedule: Q01DX005 (ip), vehicle: Klucel + Tween-80 98 % of control

CCCOc1ccc(C(=O)NCc2cccnc2)cc1C(=O)NCc1cccnc1
inactive: [3] 100 % of control | [4] 99 % of control | [5] 100 % of control

CC(OC(C(O)C=O)C(O)C(O)CO)C(=O)N[C@@H](C)C(=O)O (some centres undefined)
inactive: [12] 101 % of control | [13] 100 % of control | [14] 100 % of control

O=S(=O)(/C=C/c1cccnc1)/C=C/c1cccnc1
inactive: [6] 106 % of control | [7] 100 % of control

COC(=O)c1cc(=O)n2cnc3c(ncn3C3OC(CO)C(O)C3O)c2c1 (centres undefined)
inactive: dose: 100.0 mg/kg/injection, schedule: Q04DX003 (ip), vehicle: saline 98 % of control | dose: 200.0 mg/kg/injection, schedule: Q04DX003 (ip), vehicle: saline 100 % of control | dose: 400.0 mg/kg/injection, schedule: Q04DX003 (ip), vehicle: saline 100 % of control

O=C1CC2COc3ccccc3C2=NN1c1ccccc1 (centres undefined)
inactive: [12] 105 % of control | [13] 94 % of control | [14] 91 % of control

O=NNc1ccc(C(=O)O)cn1
inactive: dose: 3.12 mg/kg/injection, schedule: Q01DX009 (ip), vehicle: saline 108 % of control | dose: 6.25 mg/kg/injection, schedule: Q01DX009 (ip), vehicle: saline 100 % of control | [15] 106 % of control | [16] 97 % of control | [10] 100 % of control | [11] 91 % of control | dose: 200.0 mg/kg/injection, schedule: Q01DX009 (ip), vehicle: saline 110 % of control

COC(=O)C1c2ccccc2C(C(=O)OC)C(C(=O)OC)C(C(=O)OC)c2ccccc21 (centres undefined)
inactive: [17] 102 % of control | dose: 200.0 mg/kg/injection, schedule: Q04DX003 (ip), vehicle: Klucel (hydroxypropylcellulose) (HPC) 102 % of control | dose: 400.0 mg/kg/injection, schedule: Q04DX003 (ip), vehicle: Klucel (hydroxypropylcellulose) (HPC) 99 % of control

CCOC(=O)N1CCc2cc(OC)c(OC)cc2/C1=C/c1ccsc1
inactive: [18] 105 % of control | [19] 102 % of control | [20] 96 % of control

COc1ccccc1N=NNc1ccc(S(=O)(=O)NC(C)=O)cc1
inactive: [18] 107 % of control | [19] 114 % of control

c1ccc(-n2nc3c(c2-c2cccnc2)Cc2ccccc2-3)cc1
inactive: [3] 101 % of control | [4] 100 % of control | [5] 98 % of control

N#Cc1[nH]ncc1[N+](=O)[O-]
inactive: dose: 25.0 mg/kg/injection, schedule: Q01DX001 (ip), vehicle: saline with Tween-80 100 % of control | dose: 50.0 mg/kg/injection, schedule: Q01DX001 (ip), vehicle: saline with Tween-80 106 % of control | dose: 100.0 mg/kg/injection, schedule: Q01DX001 (ip), vehicle: saline with Tween-80 101 % of control

CC1(O)CCC2C3CCC4CC(=O)CCC4(C)C3(F)C(O)CC21C (centres undefined)
inactive: [8] 100 % of control | dose: 100.0 mg/kg/injection, schedule: Q04DX003 (ip), vehicle: saline with Tween-80 100 % of control | [9] 100 % of control | dose: 200.0 mg/kg/injection, schedule: Q04DX003 (ip), vehicle: saline with Tween-80 100 % of control | dose: 400.0 mg/kg/injection, schedule: Q01DX009 (ip), vehicle: saline with Tween-80 95 % of control | dose: 400.0 mg/kg/injection, schedule: Q04DX003 (ip), vehicle: saline with Tween-80 100 % of control

CC1C(=O)OC2CC34C5CC(C(C)(C)C)C36C(OC(=O)C6O)OC4(C(=O)O5)C21O (centres undefined)
inactive: [18] 100 % of control | [19] 100 % of control | [20] 92 % of control

CC1=C(C)C(=O)OC(C(C)(O)C2(O)CCC3(O)C4CC(O)C56OC5C=CC(=O)C6(C)C4CCC32C)C1 (centres undefined)
inactive: dose: 0.75 mg/kg/injection, schedule: Q01DX005 (ip), vehicle: Klucel (hydroxypropylcellulose) (HPC) 100 % of control | dose: 1.5 mg/kg/injection, schedule: Q01DX005 (ip), vehicle: Klucel (hydroxypropylcellulose) (HPC) 102 % of control | dose: 3.0 mg/kg/injection, schedule: Q01DX005 (ip), vehicle: Klucel (hydroxypropylcellulose) (HPC) 108 % of control | dose: 6.0 mg/kg/injection, schedule: Q01DX005 (ip), vehicle: Klucel (hydroxypropylcellulose) (HPC) 111 % of control

Cn1c2ccc(Cl)cc2c2c3ncncc3ccc21
inactive: dose: 50.0 mg/kg/injection, schedule: Q01DX001 (ip), vehicle: Klucel (hydroxypropylcellulose) (HPC) 96 % of control | [1] 89 % of control | [2] 91 % of control

N#CC(C#N)C1C=C/C(=N\O)C1 (centres undefined)
inactive: [15] 99 % of control | [16] 101 % of control | [7] 109 % of control | [10] 102 % of control

NS(=O)(=O)c1cc([N+](=O)[O-])c(SSc2sc(S(N)(=O)=O)cc2[N+](=O)[O-])s1
inactive: dose: 25.0 mg/kg/injection, schedule: Q04DX003 (ip), vehicle: Klucel (hydroxypropylcellulose) (HPC) 104 % of control | dose: 50.0 mg/kg/injection, schedule: Q04DX003 (ip), vehicle: Klucel (hydroxypropylcellulose) (HPC) 101 % of control | [1] 106 % of control | [17] 107 % of control | [2] 99 % of control

O=C(Cn1ccnc1)N1CCN(c2ccccc2)CC1
inactive: [12] 100 % of control | [13] 94 % of control | [14] 96 % of control
